Experiments:
MCF-7 cells = assay: Chemosensitivity (MTT cell viability) assay, MCF-7; format: cell-based, human; conditions: for IC50: MCF-7, 96 h, n = 9; for Selectivity index (SI): MCF-7 compared to ARPE-19, 96 h
Method: (§1) All cytotoxicity assays were conducted using human cell lines: breast adenocarcinomas (MDA-MB-231 and MCF-7), pancreatic carcinoma (MIA PaCa-2) and non-cancerous epithelial retinal (ARPE-19) cell lines. All cell lines were routinely maintained as monolayer cultures in appropriate complete media:
(§2) MCF-7, MIA PaCa-2 and ARPE-19 in high glucose DMEM and MDA-MB-231 in RPMI-1640, and both media were supplemented with 10% FBS, 1 mM sodium pyruvate, 2 mM L-glutamine, and 1% pen-strep. All cells were initially grown in T-25 or T-75 flasks at 37 °C and 5% CO2. Before chemosensitivity studies, cell monolayers were passaged using trypsin-EDTA (0.05%) and diluted to a concentration of 1 x 10^4 cells/mL (or 4 x 10^4 cells mL for 24 h assays). All assays were conducted in 96-well plates, in which 100 µL of the cell suspension was added for 24 h at 37 °C and 5% CO2, and then 100 µL of compound/medium dilutions for a further 96 h (or 24 h). All compound stocks were made using sterile DMSO at 100 mM before dilution, and a maximum of 0.1% DMSO was used in each assay. After incubation, 3-(4,5-dimethylthiazol-2-yl)-2,5-diphenyltetrazolium bromide (20 µL, 5 mg/mL in PBS) was added to each well and incubated for 3 h at 37°C and 5% CO2. All solutions were then aspirated, DMSO (150 µL) added to each well, gently mixed, and the absorbance was measured at 540 nm using a ClarioStar spectrophotometer microplate reader. Results were plotted on a logarithmic scale, and the half maximal inhibitory concentration (IC50) was determined from a triplicate of triplicate repeats (n = 9) and reported as an IC 50 ± Standard Deviation (SD).

MIA PaCa-2 cells = assay: Chemosensitivity (MTT cell viability) assay, MIA PaCa-2; format: cell-based, human; conditions: for IC50: MIA PaCa-2, 96 h, n = 9; for Selectivity index (SI): MIA PaCa-2 compared to ARPE-19, 96 h
Method: as §1, §2

[1] = Stability by UV/vis spectroscopy in fully supplemented phenol-red free media; format: physicochemical; conditions: 37 °C, monitored over 96 h
Method: d6/D2O mixture (70/30) spiked with 0.1 M NaCl for 96 hours, before HR -MS was conducted; these are […]
Stability Assay by NMR Spectroscopy
Compounds 1-4 (3-4 mg) were dissolved in a 500 µL mixture of 90% DMSO -d6 and 10% D2O. 1H and 31P NMR spectra were obtained by a Bruker Avance 500 MHz at room temperature and multiple time points over 4 days. A solution of sodium chloride in D2O (26.3 g/L, 143 µL) was added to the same samples (final concentration 0.1 M NaCl in 70 % DMSO-d6 and 30% D2O) to mimic the chloride concentration in blood. 1H and 31P NMR spectra were obtained by a Bruker Avance 500 MHz at room temperature and multiple time points over 4 days.
Stability Assays by UV/vis Spectroscopy
The compounds were dissolved in DMSO and added to fully supplemented DMEM phenol-red free media (see Cell Viability Assays section for all additives) under sterile conditions to obtain a final concentration of 60 µg/mL. UV/vis spectra were obtained every 30 min for 96 h at 37 °C.
as §1
MCF-7, MIA PaCa-2 and ARPE-19 in high glucose DMEM and MDA-MB-231 in RPMI-1640, and both media were supplemented with 10% FBS, 1 mM sodium pyruvate, 2 mM L-glutamine, and 1% pen-strep. All cells were initially grown in T-25 or T-75 flasks at 37 °C and 5% CO2. […] All solutions were then aspirated, DMSO (150 µL) added to each well, gently mixed, and the absorbance was measured at 540 nm using a ClarioStar spectrophotometer microplate reader. Results were plotted on a logarithmic scale, and the half maximal inhibitory concentration (IC50) was determined from a triplicate of triplicate repeats (n = 9) and reported as an IC 50 ± Standard Deviation (SD).

MDA-MB-231 cells = assay: Chemosensitivity (MTT cell viability) assay, MDA-MB-231; format: cell-based, human; conditions: for IC50: n = 9; for Selectivity index (SI): MDA-MB-231 compared to ARPE-19, 96 h
Method: as §1, §2

ARPE-19 cells = assay: Chemosensitivity (MTT cell viability) assay, noncancerous ARPE-19; format: cell-based, human; conditions: ARPE-19 noncancerous, 96 h, n = 9
Method: The cytotoxicity of the compounds against the cancer cell lines was also compared to the noncancerous retinal epithelial cell line, ARPE-19, to determine the possibility of cancer cell selectivity. […]
as §1, §2

plasmid DNA = assay: Plasmid DNA interaction, agarose gel electrophoresis; format: biochemical; conditions: 200 ng plasmid DNA, 100–400 μM, cell-free
Method: The ability of compounds to intercalate, nick, or cleave DNA can be evaluated using gel electrophoresis with plasmid DNA. In this study, in vitro plasmid DNA assays were performed by incubating 200 ng of plasmid DNA with different concentrations (100–400 μM) of 1 or CDDP, which served as a positive control. The DNA fragments were then separated via agarose gel electrophoresis, and potential changes in DNA migration patterns were analyzed.
5 Plasmid DNA (200 ng) was incubated with varying concentrations (100, 200, and 400 μM) of compound 1 or CDDP for 24 h at room temperature. The DNA was then separated via agarose gel electrophoresis, and the intensity of supercoiled and nicked circular DNA bands was quantified and expressed as mean ± SEM (n = 4).
MDA-MB-231 cells at 4000 cells/well were seeded into a black clear -bottom 96-well plate using phenol-red free complete RMPI medium, and incubated for 48 h. […] Fluorescence images were obtained using a Zeiss Observer 7 inverted microscope at excitation at 488 nm and emission at 509 […]
Plasmid DNA (200 ng, pBOS -H2B-GFP, BD Biosciences) was incubated overnight at room temperature with 1 or CDDP at concentrations between 100 and 400 μM in double -distilled H2O (20 μL total volume). […] The experiment was conducted in two biological replicates, and the band intensities were quantified and analyzed using ImageJ software. […]

Compound | IC50 (MCF-7 cells) [µM] | Selectivity index (SI) (MCF-7 cells) | IC50 (MIA PaCa-2 cells) [µM] | Selectivity index (SI) (MIA PaCa-2 cells) | Time to full decomposition (no further changes in UV/vis spectra) [1] | IC50 (MDA-MB-231 cells; MDA-MB-231, 24 h) [µM] | IC50 (MDA-MB-231 cells; MDA-MB-231, 96 h) [µM] | Selectivity index (SI) (MDA-MB-231 cells) | IC50 (ARPE-19 cells) [µM] | Plasmid DNA migration (plasmid DNA)
[Cp*Ir(C18H18NO2)(PTA)](PF6) [Compound 4] | 34.3 ± 0.6 | 0.3 | 10 ± 1 | 1.1 | 72 h | 36 ± 1 | 4.1 ± 0.5 | 2.6 | 10.7 ± 0.4 | 
[Cp*Ir(C16H13BrNO)(PTA)](PF6) [Compound 3] | 32.4 ± 0.3 | 0.5 | 11.2 ± 0.1 | 1.3 | over 96 h | 22 ± 1 | 4.8 ± 0.5 | 3.0 | 14.6 ± 0.8 | 
[NH2][Pt]([NH2])([Cl])[Cl] [CDDP, cisplatin, reference compound] | 6.1 ± 0.9 | 1.0 | 3.9 ± 0.6 | 1.5 |  | > 100 | 2.2 ± 0.3 | 2.7 | 6 ± 0.2 | faster DNA migration
[Cp*Ir(C16H12Cl2NO)(PTA)](PF6) [Compound 2] | 45.1 ± 0.8 | 0.4 | 14.9 ± 0.7 | 1.1 | 64 h | 21 ± 1 | 5.4 ± 0.3 | 3.0 | 16 ± 1 | 
N.N.O=C([O-])C1(C(=O)[O-])CCC1.[Pt+2] [CARB, carboplatin, reference compound] | 40 ± 1 | > 2.5 | 40 ± 4 | > 2.5 |  | > 100 | 16 ± 1 | > 6.3 | > 100 | 
